According to PubChem BioAssay (NCI):
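Five concentrations, 48 hours, 96-well plates. Abbreviation: GI50, concentration required for 50% inhibition of growth. TGI: concentration producing complete growth inhibition.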

Assays:
Test in all cases: NCI tumour cell line growth inhibition, 48 h
COLO 205 colon = tested on: COLO 205 colon
SNB-19 CNS = tested on: SNB-19 CNS
786-0 renal = tested on: 786-0 renal
HOP-92 NSCLC = tested on: HOP-92 NSCLC
NCI-H522 lung = tested on: NCI-H522 lung
NCI-H23 lung = tested on: NCI-H23 lung
DU-145 prostate = tested on: DU-145 prostate
SNB-75 CNS = tested on: SNB-75 CNS
CCRF-CEM leukemia = tested on: CCRF-CEM leukemia
T-47D breast = tested on: T-47D breast

Structure (SMILES) | TGI (COLO 205 colon) [µM] | TGI (SNB-19 CNS) [µM] | TGI (786-0 renal) [µM] | TGI (HOP-92 NSCLC) [µM] | TGI (NCI-H522 lung) [µM] | TGI (NCI-H23 lung) [µM] | TGI (DU-145 prostate) [µM] | TGI (SNB-75 CNS) [µM] | TGI (CCRF-CEM leukemia) [µM] | GI50 (COLO 205 colon) [µM] | GI50 (SNB-19 CNS) [µM] | GI50 (HOP-92 NSCLC) [µM] | GI50 (NCI-H522 lung) [µM] | GI50 (NCI-H23 lung) [µM] | GI50 (CCRF-CEM leukemia) [µM] | GI50 (SNB-75 CNS) [µM] | TGI (T-47D breast) [µM] | GI50 (DU-145 prostate) [µM] | GI50 (T-47D breast) [µM]
COC(=O)C1CC(C=O)=C(SC)N1 (configuration not stated) | > 50 | > 50 | > 50 | > 50 | > 50 | > 50 | > 50 | > 50 |  |  |  |  |  |  |  |  |  |  | 
Cc1ccc(Oc2cc(C)ccc2P(=O)(O)O)cc1 | > 100 | > 100 | > 100 | > 100 | > 100 | > 100 | > 100 | > 100 | > 100 |  |  |  |  |  |  |  |  |  | 
O.O=[Se](=O)(O)O.[NH-]C1CCCCC1[NH-].[Pt+2] (configuration not stated) | 67.8 | > 100 |  | > 100 | > 59.4 | > 94.9 |  | > 83 | > 100 | 5.82 | > 50.7 | 58.8 | 13.7 | 10.9 | 9.8 | 16.9 |  |  | 
CC1=NN(C(=O)Cc2ccccc2)C(=O)/C1=C\c1cccc(O)c1 | > 100 | > 100 | > 100 |  | > 100 | > 100 |  | > 100 | > 100 |  |  |  |  |  |  |  |  |  | 
Cc1cc(Br)cc(C)c1NC(=O)C(=O)C(C(=O)c1ccc(Cl)c(Cl)c1)C1OC(=O)c2ccccc21 (configuration not stated) | > 100 | > 100 | > 100 |  | > 100 | > 100 |  |  | > 100 |  |  |  |  |  |  |  |  |  | 
Cc1cc2nnn(C3CCCO3)c2cc1C (configuration not stated) | > 100 |  | > 100 |  | > 100 | > 100 | > 100 | > 100 | > 100 |  |  |  |  |  |  |  | > 100 |  | 
CCCNC(=O)Cn1c(-c2ccccc2)cc2ccccc21 | > 100 | > 100 | > 100 |  | 60.1 | > 100 | > 100 | > 100 | > 100 |  |  |  |  |  |  |  | > 100 |  | 
CN1C(C(=O)Nc2ccccn2)=C(O)c2ccccc2S1(=O)=O | > 100 | > 100 | > 100 |  | > 100 | > 100 | > 100 | > 100 | > 100 |  |  |  |  |  |  |  | > 100 |  | 
COc1ccc(CNc2cnc3cc(N)ccc3n2)cc1OC | > 100 | > 100 | > 100 |  | > 100 |  |  | > 100 | > 100 |  |  |  |  |  |  |  |  |  | 
Cn1cnc([N+](=O)[O-])c1Sc1nncc2[nH]cnc12 | > 100 | > 100 | > 100 | > 100 | > 100 | > 100 |  | > 100 | > 100 |  |  |  |  |  |  |  | > 100 |  | 
COc1ccc(/C(Cl)=C(\C=O)c2ccc(Cl)cc2)cc1 |  | 87.4 |  |  | 5.89 | 17.1 |  | 26.2 | 11.4 |  |  |  |  |  |  |  |  |  | 
COc1cccc2c1C(=O)c1c(O)c3c(c(O)c1C2=O)C[C@](O)(C(=O)CO)CC3OC1CC(N)C(OC2CCCCO2)C(C)O1 (some centres not stated) | 2.61 | 4.16 |  | 1.02 | 2.62 | 1.97 |  | 1.18 |  |  |  |  |  |  |  |  |  |  | 
O=c1oc2ccccc2cc1-c1nc2ccccc2s1 |  |  | 10.6 | 22.3 | 21.5 | 39.4 | 43.7 | 17.4 |  |  |  |  |  |  |  |  |  |  | 
CCOC(=O)Cn1c(C)nc2nn(Cc3ccccc3)cc2c1=O |  | > 100 | > 100 | > 100 |  | > 100 | > 100 |  | > 100 |  |  |  |  |  |  |  | > 100 |  | 
CCCCC[C@@H]1OC(=O)[C@@]2(CC3c4ccccc4C2c2ccccc23)[C@H]1C(=O)OC | 30.5 | > 100 | > 100 | > 100 |  | > 100 | > 100 |  | > 100 |  |  |  |  |  |  |  |  |  | 
COc1ccc(N2C(=O)CSC2c2cc(OC)c(OC)c(OC)c2)cc1 (configuration not stated) | 54.1 | 80.8 | 48.4 | > 100 | 73.6 | > 100 | 72.2 |  | 35.1 |  |  |  |  |  |  |  |  |  | 
Cc1ccc(NC(=O)NC23CC4CC(CC(F)(C4)C2)C3)cc1 | > 100 | > 100 | > 100 | > 100 | > 100 | > 100 |  | 87.1 | > 100 |  |  |  |  |  |  |  |  |  | 
CC(=O)Nc1[nH]c(=O)[nH]c(=O)c1N(C(C)=O)C(C)=O | > 100 | > 100 | > 100 | > 100 |  |  |  |  | > 100 |  |  |  |  |  |  |  |  |  | 
C=C(Cl)C(=C)CCC(Cl)C(C)(C)Cl (configuration not stated) | > 100 | > 100 | > 100 | > 100 | > 100 | > 100 | > 100 | > 100 | > 100 |  |  |  |  |  |  |  |  |  | 

Structure (SMILES) | TGI (COLO 205 colon) [µM] | TGI (SNB-19 CNS) [µM] | TGI (786-0 renal) [µM] | TGI (HOP-92 NSCLC) [µM] | TGI (NCI-H522 lung) [µM] | TGI (NCI-H23 lung) [µM] | TGI (DU-145 prostate) [µM] | TGI (SNB-75 CNS) [µM] | TGI (CCRF-CEM leukemia) [µM] | GI50 (COLO 205 colon) [µM] | GI50 (SNB-19 CNS) [µM] | GI50 (HOP-92 NSCLC) [µM] | GI50 (NCI-H522 lung) [µM] | GI50 (NCI-H23 lung) [µM] | GI50 (CCRF-CEM leukemia) [µM] | GI50 (SNB-75 CNS) [µM] | TGI (T-47D breast) [µM] | GI50 (DU-145 prostate) [µM] | GI50 (T-47D breast) [µM]
C=C1C(=O)OC2C1CC1OC2C(C)CCC/C(C)=C\CCC1(C)O (configuration not stated) | 58.1 | 103 |  | 30.1 | 26.2 | 29 |  | 51.5 | 22.2 |  |  |  |  |  |  |  |  |  | 
O=C(NNc1ccc([N+](=O)[O-])cc1)C1OC(CO)C(O)C1O (configuration not stated) | > 100 | > 100 | > 100 | > 100 |  | > 100 |  | > 100 | > 100 |  |  |  |  |  |  |  |  |  | 
Brc1ccc2[nH]cc(-c3nc(-c4c[nH]c5ccncc45)cs3)c2c1 |  |  |  |  |  | 3.17 | 3.07 | 2.53 | 5.14 |  |  |  |  | 1.64 | 2.24 | 1.22 |  | 1.68 | 
C#Cc1ccccc1C(=O)OC | > 100 | > 100 |  | > 100 | > 100 | > 100 |  | > 100 | > 100 |  |  |  |  |  |  |  |  |  | 
CC1Oc2c(c(O)cc3oc(=O)cc(-c4ccccc4)c23)C(=O)C1C (configuration not stated) | > 100 |  |  | > 100 | > 100 | > 100 |  | > 100 | > 100 |  |  |  |  |  |  |  |  |  | 
O=C(O)C1(Cc2ccc3c(c2)CCC3)Cc2cc3c(cc2C1)CCC3 | > 100 | > 100 | > 100 | > 100 |  |  | > 100 | > 100 | > 100 |  |  |  |  |  |  |  |  |  | 
C=C1C[C@]23CC[C@@H]4C(CO)(CO)CC(=O)C[C@]4(C)[C@@H]2C(O)C[C@H]1C3 (some centres not stated) | > 100 | > 100 | > 100 | > 100 | > 100 | > 100 | > 100 | > 100 | > 100 |  |  |  |  |  |  |  |  |  | 
CC(=O)Nc1oc(C)nc1C#N |  | > 100 | > 100 | > 100 |  |  | > 100 |  | > 100 |  |  |  |  |  |  |  |  |  | 
O=C(c1ccccc1)c1ccc2c(c1)N=C(c1ccc(Cl)c(Cl)c1)CC(c1ccc3ccccc3c1)N2 (configuration not stated) | > 100 | > 100 |  | > 100 | > 100 | > 100 |  | > 100 | > 100 |  |  |  |  |  |  |  |  |  | 
CN(c1ccccc1)c1c(-c2ccccc2)c(=O)oc2c1ccc1occc12 | > 100 | > 100 |  | > 95.6 | > 100 | > 100 |  | > 100 | > 100 |  |  |  |  |  |  |  |  |  | 
Cc1ccc(N=Nc2cc(=O)[nH]c(=O)[nH]2)cc1C | 19.9 | 35.2 | 8.69 | 33.4 |  |  | 27.9 | 15.3 | > 100 |  |  |  |  |  |  |  |  |  | 
CC(C)=CCC/C(C)=C/CCC1(C)C2COC(=O)C21 (configuration not stated) | > 100 | > 100 | > 100 | 87 | > 100 | > 100 | > 100 |  | 80.8 |  |  |  |  |  |  |  |  |  | 
CCCCCCCCCC[C@@H](O)[C@H]1CC[C@@H]([C@H]2CC[C@H]([C@H](O)CCCCCCCCCC[C@@H]3CC(CC(C)=O)C(=O)O3)O2)O1 (some centres not stated) | 32.2 | > 100 | > 100 | 63.4 | 37.1 | > 100 |  |  | > 100 | 15.6 | 18.3 |  |  | 0.754 |  | 72 | 69.4 |  | 2.99
OCC1=C[C@@](COCc2ccccc2)(OCc2ccccc2)[C@@H](OCc2ccccc2)[C@@H]1OCc1ccccc1 | 23.9 | > 100 | 52.9 |  | 51 | 38.8 | > 100 |  | 11 |  |  |  |  |  |  |  | 82.8 |  | 
OCC(CO)CC1COc2ccccc2O1 (configuration not stated) | > 10 | > 10 |  |  | > 10 | > 10 | > 10 | > 10 | > 10 |  |  |  |  |  |  |  | > 10 |  | 
CCCCN=C(OC1C=CCCC1)SC (configuration not stated) | > 100 | > 100 | > 100 | > 100 |  | > 100 | > 100 | > 100 | > 100 |  |  |  |  |  |  |  | > 100 |  | 
CC(=O)N/N=C1\NN(C(C)=O)C2(S1)C(=O)Nc1ccccc12 (configuration not stated) |  | > 100 | > 100 |  | > 100 | > 100 | > 100 | > 100 | > 100 |  |  |  |  |  |  |  | > 100 |  | 
CC12CC(=O)NN=C1c1ccccc1C2 (configuration not stated) | > 100 | > 100 | > 100 |  | > 100 | > 100 |  | > 100 | > 100 |  |  |  |  |  |  |  |  |  | 
CCn1c2ccccc2c2cc(NC(=O)c3c(C)[nH]c(=O)[nH]c3=S)ccc21 | 46.3 | > 100 |  | > 100 |  | > 100 | > 100 | > 100 | > 100 |  |  |  |  |  |  |  | > 100 |  | 
